Converted amounts (≈) assume the structure as drawn. The source made the active and inactive calls. No cut-off for these calls is given here.
Experiments:
Candida albicans = experiment: Antifungal activity against Candida albicans assessed as fungal growth inhibition incubated for 48 hrs by microplate reader assay; format: functional
Nannizzia gypsea = experiment: Antifungal activity against Microsporum gypseum assessed as fungal growth inhibition incubated for 48 hrs by microplate reader assay; format: functional
Nakaseomyces glabratus [1] = experiment: Synergistic antifungal activity against fluconazole-resistant Candida glabrata 0161 assessed as fungal growth inhibition incubated for 48 hrs in presence of fluconazole by time-growth curve assay; format: functional, organism-based
Nakaseomyces glabratus [2] = experiment: Synergistic antifungal activity against fluconazole-resistant Candida glabrata 0161 assessed as inhibition of fungal biofilm formation at 1 ug/ml incubated for 24 hrs in presence of fluconazole by XXT reduction menadione assay; format: functional
Nakaseomyces glabratus [3] = experiment: Synergistic antifungal activity against fluconazole-resistant Candida glabrata 0161 assessed as inhibition of fungal biofilm formation at 32 ug/ml incubated for 24 hrs in presence of fluconazole by XXT reduction menadione assay; format: functional
Nakaseomyces glabratus [4] = experiment: Antifungal activity against fluconazole-resistant Candida glabrata 0161 assessed as inhibition of fungal mature biofilm formation at 0.25 to 64 ug/ml incubated for 24 hrs by XXT reduction menadione assay; format: functional, organism-based; details: dose 0.25-64 µg/ml
Nakaseomyces glabratus [5] = experiment: Synergistic antifungal activity against fluconazole-resistant Candida glabrata 0161 assessed as downregulation of PDR1 gene expression at 4 ug/ml in presence of fluconazole by RT-PCR analysis; format: functional, organism-based; details: dose 4.0 µg/ml
Nakaseomyces glabratus [6] = experiment: Synergistic antifungal activity against fluconazole-resistant Candida glabrata 0161 assessed as downregulation of ERG11 gene expression at 4 ug/ml in presence of fluconazole by RT-PCR analysis; format: functional, organism-based; details: dose 4.0 µg/ml
[7] = AUC (0-infinity) in ICR mouse at 2 mg/kg,iv measured upto 24 hrs by LC-MS/MS analysis; format: ADME, organism-based; design: dose 2 mg/kg, time < 24 hrs, route iv; details: in vivo
[8] = Volume of distribution at steady state in ICR mouse at 2 mg/kg,iv measured upto 24 hrs by LC-MS/MS analysis; format: ADME, organism-based; details: in vivo, read-out: Vdss

With `Nc1cc(=O)n(C(=S)Nc2ccc3c(c2)CCC3)[nH]1` the MIC (Candida albicans) was 4 µg/mL (≈ 14.6 µM), the MIC (Nannizzia gypsea) was 1 µg/mL (≈ 3.64 µM) and the Activity (Nakaseomyces glabratus [1]) was “Dose-Dependent Effect”. For the same compound, the inhibition at 1 µg/mL (Nakaseomyces glabratus [2]) was 33%, the inhibition at 32 µg/mL (Nakaseomyces glabratus [3]) was 73% and the inhibition (Nakaseomyces glabratus [4]) was “inactive”. The Activity (Nakaseomyces glabratus [5]) was “Active”, the Activity (Nakaseomyces glabratus [6]) was “Active” and the AUC(0-inf) [7] was 491 ng·h/mL. For the same compound, the Vd [8] was 1.04 L/kg.

Source: ChEMBL document CHEMBL5321270, “Discovery of Pyrazolone Carbothioamide Derivatives as Inhibitors of the Pdr1-KIX Interaction for Combinational Treatment of Azole-Resistant Candidiasis” (J Med Chem, 2023)
